Here are results for three compounds from PMC4311985, “Molecular Surveillance of Antiviral Drug Resistance of Influenza A/H3N2 Virus in Singapore, 2009-2013” (PLoS ONE, 2015).

The test system of experiment [1] is influenza A/H3N2 NA E119V. To be noted: ref [3] of supplement (Nguyen 2012); cited from earlier work.
In experiment [2] the test system is influenza A/H3N2 NA E119D. Conditions: ref [3] of supplement (Nguyen 2012); cited from earlier work.
For experiment [3], the system named is influenza A/H3N2 NA D151E. Conditions: ref [3] of supplement (Nguyen 2012); cited from earlier work.
For a further experiment, the system named is influenza A/H3N2 NA E41G. Conditions: ref [2] of supplement (Monto 2006); cited from earlier work.
For experiment [4], the system named is influenza A/H3N2 NA N294S. To be noted: ref [3] of supplement (Nguyen 2012); cited from earlier work.
Experiment [5] concerns influenza A/H3N2 NA Q226H. To be noted: ref [2] of supplement (Monto 2006); cited from earlier work.
Experiment [6] concerns influenza A/H3N2 NA D151A. Conditions: ref [4] of supplement (Sheu 2008); cited from earlier work.
For experiment [7], the system named is influenza A/H3N2 NA I222T. To be noted: cited from earlier work.
The subject of experiment [8] is influenza A/H3N2 NA E119I. To be noted: ref [3] of supplement (Nguyen 2012); cited from earlier work.
The subject of experiment [9] is influenza A/H3N2 NA R292K. Conditions: ref [3] of supplement (Nguyen 2012); cited from earlier work.
The test system of experiment [10] is influenza A/H3N2 NA E276D. To be noted: ref [3] of supplement (Nguyen 2012); cited from earlier work.
Experiment [11] relates to influenza A/H3N2 NA E119V+I222V. To be noted: ref [3] of supplement (Nguyen 2012); cited from earlier work.
Experiment [12] relates to influenza A/H3N2 NA R371K. Conditions: ref [3] of supplement (Nguyen 2012); cited from earlier work.
Experiment [13] has as its system influenza A/H3N2 NA D151V. To be noted: ref [4] of supplement (Sheu 2008); cited from earlier work.
Experiment [14] has as its system influenza A/H3N2 NA Q136K. Conditions: ref [3] of supplement (Nguyen 2012); cited from earlier work.
Experiment [15] deals with influenza A/H3N2 NA E119V+I222L. Conditions: ref [3] of supplement (Nguyen 2012); cited from earlier work.
Experiment [16] deals with influenza A/H3N2 NA R224K. Conditions: ref [3] of supplement (Nguyen 2012); cited from earlier work.
Experiment [17] has as its target influenza A/H3N2 NA, D93G, Y155F, D251V mutations in combination (Influenza A virus (H3N2), UniProt V9SU56, D251V/D93G/Y155F). In kind it is biochemical. Conditions: read-out: mean drug concentration required to inhibit 50% NA activity.
In experiment [18] the target is influenza A/H3N2 NA, D93G, D251N mutations in combination (Influenza A virus (H3N2), UniProt V9SU56, D251N/D93G). In kind it is biochemical. To be noted: read-out: mean drug concentration required to inhibit 50% NA activity.
Experiment [19] concerns the target influenza A/H3N2 NA, D93G single mutation (Influenza A virus (H3N2), UniProt V9SU56, D93G). In kind it is biochemical. To be noted: read-out: mean drug concentration required to inhibit 50% NA activity.

Take `CCOC(=O)C1=C[C@@H](OC(CC)CC)[C@H](NC(C)=O)[C@@H](N)C1` [Oseltamivir, oseltamivir]: the “Drug susceptibility by NA inhibition assays (WHO class)” value in experiment [1] was “DS/R”; in experiment [2], “S (<10-fold increase as susceptible (“S”))”; in experiment [3] it was “DS (10–100-fold increase as decreased susceptibility (“DS”))”; with influenza A/H3N2 NA E41G, “DS (10–100-fold increase as decreased susceptibility (“DS”))”; in [4], “R (>100-fold increase as resistant (“R”))”; in experiment [5], “DS (10–100-fold increase as decreased susceptibility (“DS”))”. For the same compound, the “Drug susceptibility by NA inhibition assays (WHO class)” value is reported as “S (<10-fold increase as susceptible (“S”))” in [6]; “DS (10–100-fold increase as decreased susceptibility (“DS”))” in [7] (I222T, ref [5] of supplement (Pizzorno 2014)); “R (>100-fold increase as resistant (“R”))” in [8]; “R (>100-fold increase as resistant (“R”))” in experiment [9]; “DS (10–100-fold increase as decreased susceptibility (“DS”))” in experiment [10]; “R (>100-fold increase as resistant (“R”))” in experiment [11]. Besides, the “Drug susceptibility by NA inhibition assays (WHO class)” value is reported as “DS (10–100-fold increase as decreased susceptibility (“DS”))” in experiment [12]; “S (<10-fold increase as susceptible (“S”))” in [13]; “S (<10-fold increase as susceptible (“S”))” in experiment [14]; “R (>100-fold increase as resistant (“R”))” in experiment [15]; “R (>100-fold increase as resistant (“R”))” in experiment [16]. The “increase in IC50 compared to that of the wild-type” value in [7] (I222T in influenza A/H3N2) is 16 fold.

`CCC(CC)[C@H](NC(C)=O)[C@@H]1[C@H](O)[C@@H](C(=O)O)C[C@H]1N=C(N)N` [Peramivir, peramivir]: the IC50 in experiment [17] was determined as 0.2 ± 0.1 nM; in experiment [18] it was 0.4 nM; in [19] it was 0.2 ± 0.1 nM. The “Drug susceptibility by NA inhibition assays (WHO class)” value in [1] is given as “S (<10-fold increase as susceptible (“S”))”; in [2] it was “S (<10-fold increase as susceptible (“S”))”; in [4], “S (<10-fold increase as susceptible (“S”))”; in [8], “S (<10-fold increase as susceptible (“S”))”; in experiment [9], “DS/R”; in experiment [11], “S (<10-fold increase as susceptible (“S”))”. Moreover, the “IC50 fold-change compared to wildtype” value in [1] was 1-3 fold; in [2], 2 fold; in [4] it was 1 fold; in experiment [8] it was 3 fold; in [9] it was 14-719 fold; in experiment [11], 7 fold.

Take `CC(=O)N[C@H]1[C@H]([C@H](O)[C@H](O)CO)OC(C(=O)O)=C[C@@H]1N=C(N)N` [Zanamivir, zanamivir]: the “Drug susceptibility by NA inhibition assays (WHO class)” value is listed as “S (<10-fold increase as susceptible (“S”))” in [1]; “DS (10–100-fold increase as decreased susceptibility (“DS”))” in [2]; “S (<10-fold increase as susceptible (“S”))” in experiment [3]; “S (<10-fold increase as susceptible (“S”))” in the experiment on influenza A/H3N2 NA E41G; “S (<10-fold increase as susceptible (“S”))” in [4]; “S (<10-fold increase as susceptible (“S”))” in experiment [5]. Also, the “Drug susceptibility by NA inhibition assays (WHO class)” value in experiment [6] was “DS (10–100-fold increase as decreased susceptibility (“DS”))”; in experiment [8], “DS (10–100-fold increase as decreased susceptibility (“DS”))”; in [9], “S/DS/R”; in experiment [10], “R (>100-fold increase as resistant (“R”))”; in experiment [11], “S (<10-fold increase as susceptible (“S”))”; in [12], “DS (10–100-fold increase as decreased susceptibility (“DS”))”. Also, the “Drug susceptibility by NA inhibition assays (WHO class)” value in experiment [13] is “DS (10–100-fold increase as decreased susceptibility (“DS”))”; in experiment [14] it was “DS (10–100-fold increase as decreased susceptibility (“DS”))”; in [15], “S (<10-fold increase as susceptible (“S”))”; in experiment [16], “DS (10–100-fold increase as decreased susceptibility (“DS”))”.
